Data set [1] can be described thus: Determination of peptide hydrophobicity with RP-HPLC (adjusted retention time). It counts as physicochemical. The settings on record: RP-HPLC as measure of hydrophobicity; Waters X-Bridge Shield RP-18 3.0 × 100 mm, 3.5 μm; linear 20–80% acetonitrile in water over 30 min, 0.1% TFA; 0.5 mL/min; 25.0 °C; peptide 1 g/L in water (0.1% TFA); UV 214 nm; triplicate. As to the method:
To determine peptide hydrophobicity, a Waters Alliance e2695 system with a Waters 2998 PDA Detector was used. All analyses were carried out on a Waters X-Bridge Shield RP-18 column (3.0 × 100 mm, 3.5 μm particle size, 130 Å pore size). The peptides were dissolved in water (0.1% TFA, v/v) up to a concentration of 1 g/L. UV detection at 214 nm was used, and samples (10 μL) were eluted with a linear 20–80% acetonitrile gradient in deionized water over 30 min at 25.0 ± 0.1 °C. The mobile phase flow rate was 0.5 mL/min. Both eluents contained 0.1% (v/v) of TFA. Each peptide sample was analyzed in triplicate. Maximum standard deviation and coefficient of variation were 0.046 and 0.23%, respectively.
After synthesis and purification, all the products were analyzed with MS and HPLC to confirm purity and identity of the compounds. […] The chromatographic analyses were performed with RP-HPLC; retention time refers to hydrophobicity of the lipopeptide.

Data set [2] concerns C. glabrata ATCC 15126. It is filed as cell-based, Candida glabrata. Particulars: ATCC 15126, 24 h. As to the method:
The Acinetobacter baumannii ATCC BAA-1605, Enterococcus faecium ATCC 700221, Klebsiella aerogenes ATCC 13048, Klebsiella pneumoniae ATCC 700603, Pseudomonas aeruginosa ATCC 9027, Staphylococcus aureus ATCC 33591, Candida glabrata ATCC 15126, strains were acquired from the American Type Culture Collection (ATCC). All the strains were stored at −80 °C in Roti-Store cryo vials and were transferred into fresh Mueller–Hinton broth (MHB, Becton Dickinson, Warsaw, Poland) for bacteria or RPMI-1640 (Sigma-Aldrich, Steinheim, Germany) for fungi before the tests and incubated for 24 h at 37 °C. Then, the cultures were seeded on the Mueller–Hinton agar (BioMaxima, Lublin, Poland) or Sabouraud dextrose agar (SDA, BioMaxima, Lublin, Poland) plates, respectively, and incubated as just mentioned. These agar cultures were used for further microbiological assays. Cell densities for all assays were adjusted spectrophotometrically (Multiskan GO Microplate Spectrophotometer, Thermo Fisher Scientific, Vantaa, Finland) at 600 and 530 nm for bacteria and fungi, respectively.
The MICs were determined using a broth microdilution method according to the Clinical and Laboratory Standard Institute guidelines. For this purpose, initial inoculums of bacteria (5 × 10^5 CFU/mL) in MHB and yeasts (2 × 10^3 CFU/mL) in RPMI-1640 with 2% D-glucose were exposed to the ranging concentration of lipopeptides (1–512 μg/mL) and incubated at 37 °C for 18 h and 24 h, respectively. The experiments were conducted on 96-well microtiter polystyrene plates (Kartell, Italy). The growth was assessed visually after incubation and the MIC was assumed as the lowest peptide concentration at which a noticeable growth of microorganisms was inhibited. All experiments were conducted in triplicate.

The nature of data set [3]: MTT assay, cytotoxicity. It is filed as cell-based, human. The settings on record: HaCaT, 24 h incubation at 37 °C, 0.5–500 μg/mL, six replicates per concentration, repeated at least twice. As to the method: To evaluate the cytotoxicity of the test peptides (IC50), the classic MTT assay on 96-well plates was performed for human keratinocytes (HaCaT) which were acquired from the ATCC. The assay was based on colorimetric determination of the cell metabolic activity where the color intensity reflected the number of live cells that could be measured spectrophotometrically. The cell line was cultured in a Dulbecco’s modified Eagle Medium (Invitrogen) supplemented with 10% fetal bovine serum (v/v), 100 units/mL of penicillin, 100 μg/mL of streptomycin, and 2 mM L-glutamine and was kept at 37 °C in a humidified 5% CO2 incubator. Briefly, a day after plating of 500 cells per well, a series of concentrations (0.5–500 μg/mL) of the test compounds were applied. DMSO was added to the control cells at a final concentration of 1.0% (v/v), which was related to the maximum concentration of the solvent compounds used in the experiment. After 24 h of incubation at 37 °C (humidified 5% CO2 incubator) with the peptides, a medium containing 1 mg/mL of MTT was added to the wells up to a final concentration of 0.5 mg/mL. Subsequently, the plates were incubated at 37 °C for 4 h. Then, the medium was aspirated, and the formazan product was solubilized with DMSO. The background absorbance at 630 nm was subtracted from that at 570 nm for each well (Epoch, BioTek Instruments, Winooski, VT, USA). Six replicates were conducted for each concentration. All experiments were repeated at least twice and the resulting IC50 values were calculated with a GraFit 7 software (v. 7.0, Erithacus, Berkley, CA, USA).
The selectivity indexes were calculated for all the strains as IC50/MIC. According to IC50, in most cases, glycosylation caused only a slight decrease in toxicity. However, in contrast with SI calculated for HC50, the differences between USCLs and gUSCLs are not so distinct. […] Moreover, toxicity of USCLs and gUSCLs is high and exceeds their antimicrobial activity. The lipopetides were not selective against Gram-negative strains (K. pneumoniae, A. baumannii, P. aeruginosa, K. aerogenes) over human cells. A few USCLs were selective (SI > 1) against E. faecium and S. aureus with SI up to 1.87; and some gUSCLs were selective against E. faecium but not against S. aureus, with SI between 0.63 and 1.73. […] In this case, SI of gUSCLs was noticeably […] than that of corresponding parent USCLs (2.07, 1.99, 2.67 vs. 2.53, 2.36, 3.46, respectively). Selectivity indexes were plotted against adjusted retention time (Figures S15–S21). A moderate linear correlation was found in USCLs and K. pneumoniae, C. glabrata, and gUSCLs and K. pneumoniae, K. aerogenes (R^2 between 0.6064 and 0.6481). A relatively high linear correlation was obtained for USCLs and K. aerogenes (R^2 of 0.8214) and also for gUSCLs and C. glabrata (R^2 of 0.9223).

The test system of data set [4] is E. faecium ATCC 700221. The settings on record: planktonic cells, analyses performed in the previous study; cited from earlier work. An excerpt: However, enhanced activity with elongation of the hydrocarbon chain length in fatty acid residue and the change of serine position to 2 or 3 could be seen. […] Generally, the lo ...
Data set [5] has as its system S. aureus ATCC 33591. The settings on record: planktonic cells, analyses performed in the previous study; cited from earlier work. From the text: Table 2 Antimicrobial activity (MIC [µg/mL]) of lipopeptides 1–18 against planktonic cells. | column: S. aureus ATCC 33591
The subject of data set [6] is K. pneumoniae ATCC 700603. The settings on record: planktonic cells, analyses performed in the previous study; cited from earlier work. From the text: Table 2 Antimicrobial activity (MIC [µg/mL]) of lipopeptides 1–18 against planktonic cells. | column: K. pneumoniae ATCC 700603
Data set [7] deals with A. baumannii ATCC BAA 1605. The settings on record: planktonic cells, analyses performed in the previous study; cited from earlier work. From the text:
Table 2 Antimicrobial activity (MIC [µg/mL]) of lipopeptides 1–18 against planktonic cells. | column: A. baumannii ATCC BAA 1605

For data set [8], the system named is P. aeruginosa ATCC 9027. The settings on record: planktonic cells, analyses performed in the previous study; cited from earlier work. From the text: Table 2 Antimicrobial activity (MIC [µg/mL]) of lipopeptides 1–18 against planktonic cells. | column: P. aeruginosa ATCC 9027
Data set [9] deals with K. aerogenes ATCC 13048. The settings on record: planktonic cells, analyses performed in the previous study; cited from earlier work. From the text:
Table 2 Antimicrobial activity (MIC [µg/mL]) of lipopeptides 1–18 against planktonic cells. | column: K. aerogenes ATCC 13048

The subject of data set [10] is human red blood cells (RBCs). The settings on record: cited from earlier work.
Data set [11] concerns S. aureus biofilm. The arrangement: method as in PMID 33804887. The settings on record: S. aureus ATCC 33591 biofilm; previous studies; cited from earlier work.
The test system of data set [12] is K. pneumoniae biofilm. More on the design: method as in PMID 33804887. Particulars: K. pneumoniae biofilm (Gram-negative strains); previous studies; cited from earlier work.
The test system of data set [13] is A. baumannii biofilm. The arrangement: method as in PMID 33804887. The settings on record: A. baumannii biofilm (Gram-negative strains); previous studies; cited from earlier work.
In data set [14] the test system is P. aeruginosa biofilm. The arrangement: method as in PMID 33804887. The settings on record: P. aeruginosa biofilm (Gram-negative strains); previous studies; cited from earlier work.

Values after ≈ are worked out from the molar mass of the structure shown. Values joined by “and” are separate entries in the source; they are usually repeats but may differ in a detail not shown here. Equal entries are not always repeated. Marks after values point to notes of the source that are not given here. Where a SMILES comes first, the peptide text is derived from it. The star is where a group is joined. Myristoyl = CCCCCCCCCCCCCC(=O)*

In the case of `CCCCCCCCCCCCCC(=O)N[C@@H](CO)C(=O)N[C@@H](CCCNC(=N)N)C(=O)N[C@@H](CCCNC(=N)N)C(N)=O` [Peptide 1, C14-SRR-NH2] (Myristoyl-Ser-Arg-Arg-NH2), the “Adjusted Retention Time” value in [1] was 16.55 min. Also, the MIC in data set [2] is 32 µg/mL (≈ 51 µM); in data set [4] it was 16 µg/mL and 16 * µg/mL; in data set [5] it was 16 * µg/mL; in data set [6], 128 * µg/mL; in data set [7] it was 32 * µg/mL; in data set [8], 32 * µg/mL. In addition, the MIC in data set [9] is on record as 128 * µg/mL. In addition, in data set [3], it took 1.41 ± 0.29 µg/mL (≈ 2.25 µM) to reach half-maximal inhibition (IC50). The “HC50 (hemolytic activity)” value in data set [10] is 41.54 ± 1.29 µg/mL.

For C12-RR-NH2 [Peptide C12-RR-NH2], the MBEC in data set [11] is reported as 64 µg/mL; in data set [12], 512 µg/mL; in data set [13] it was 512 µg/mL; in data set [14], 512 µg/mL.

The term MIC denotes the lowest concentration found to suppress growth. Broadly, the IC50 is the concentration that gives 50% inhibition. A low value points to greater potency in that assay.
